The values that follow come from article PMC8234864, “Early Effects of the Soluble Amyloid β25-35 Peptide in Rat Cortical Neurons: Modulation of Signal Transduction Mediated by Adenosine and Group I Metabotropic Glutamate Receptors” (International Journal of Molecular Sciences, 2021).

Several values for one entry are separate records, joined by “and”; a condition that tells them apart may be missing. Equal values may be shown once. Where no end group is shown, it is not given here.

Holding throughout (assay type): cell-based, rat
Assay [1] concerns mGluR1 (GRM1) gene expression. Kind of assay: mGluR1 gene expression by real-time PCR. As to conditions: 25 µM, 24 or 48 h, vs control neurons. On the procedure: (§1) Total RNA was extracted using an ABI 6100 Nucleic Acid PrepStation according to the manufacturer’s protocol (Applied Biosystems Inc., Foster City, CA, USA). Total RNA from cells was isolated and stored at −80 °C. The quality of isolated RNA was estimated by the ratio A260/A280 and was in the range of 1.9–2.1. RNA integrity was evaluated by agarose gel electrophoresis according to MIQE guidelines using the “bleach gel” method. RNA concentrations were determined from the A260. One microgram of total RNA was reverse transcribed using Applied Biosystems High-Capacity cDNA Archive Kit.
(§2) To assess relative gene expression in neurons, quantitative real-time RT-PCR analysis was performed with an Applied Biosystems Prism 7500 Fast Sequence Detection System using TaqMan® universal PCR master mix according to the manufacturer’s specifications. […] Levels of RNA expression were determined using the 7500 Fast System SDS software version 1.3.1 (Applied Biosystems) according to the 2^−ΔΔCt method. […] The results from three independent repeat assays, performed in different plates each using different cDNA’s from the cultures analyzed, were averaged to produce a single mean quantity value for each mRNA.
In general terms: Quantitative PCR measures a nucleic acid by following its amplification.

The test system of assay [2] is mGluR5 (GRM5) gene expression. Put plainly: mGluR5 gene expression by real-time PCR. As to conditions: 25 µM, 24 or 48 h, vs control neurons. On the procedure: as §1, §2
The subject of the next assay is mGluR1. Put plainly: Extracellular immunostaining of mGluR1 in non-permeabilized neurons. The note with it: 25 µM, 24 h, whole-cell immunostaining. On the procedure:
The quantitative analysis of the levels of Group I mGluR and mGluR2,3 at the plasma membrane was performed with extracellular targeted polyclonal antibodies (mGluR1, mGluR5 and mGluR2,3, Alomone Labs, Jerusalem, Israel), as previously described with minor modifications. Briefly, after 2 weeks in culture, the culture medium was removed and cells washed with Locke Buffer (LB, pH 7.4). Cells were then fixed with 4% paraformaldehyde for 10 min at room temperature and washed with three 10-min intervals with LB.
Nonspecific staining was suppressed by blocking with 3% normal goat serum in LB for 60 min. […]
To evaluate the degree of fluorescence intensity in cortical neurons, fluorescence was measured to estimate the protein expression in the different experimental conditions analyzed. Images (448.6 µm × 335.08 µm) obtained with a digital camera (Leica DFC350FX R2), attached to a Leica DMI6000B (Leica Microsystems, Wetzlar, Germany) fluorescent microscope, were used for quantification (20x HCX PL FLUOTAR 0.4 dry objective). […] Fluorescence intensity was estimated by averaging mean grey values. […] Data were normalized to the total number of cells in the analyzed fields. The mean fluorescence background, calculated in the unstained regions between neurons, was subtracted from the fluorescence intensity of each data point. […]

In assay [3] the test system is Group I mGluR/PLC signalling pathway. Kind of assay: Phospholipase C activity (IP3 accumulation), basal and DHPG-stimulated. On the procedure: This method was previously reported and is divided into two well-defined steps: IP3 accumulation: culture medium was discharged, and cells were washed twice with DMEM containing 20 mM HEPES, pH 7.4. After 20 min at 37 °C, different ligands were added to cells for 10 min at 37 °C to analyse their effect on PLC activity in a final reaction volume of 300 μL. The enzymatic reaction was stopped and cells lysed by adding 50 μL 2.8 M perchloric acid and placing plates on ice for 30 min. The medium was neutralized with 70 μ[…] Tris-HCl, 2 M KOH, and 60 mM EGTA, transferred to Eppendorf tubes and centrifuged at 12,000× g for 10 min. The supernatant was then collected to determine the IP3 level. IP3 level determination: IP3 levels in cells were determined as previously reported by Palmer and modified by […] [100]. Incubation of [^3H]IP3 (0.2 pmol; 3000-5000 cpm) in assay buffer (100 mM Tris-HCl, 4 mM EDTA, 4 mM EGTA, 4 mg/mL BSA, pH 9.0), binding protein (500-600 μg), and 25-50 μL of supernatant obtained from IP3 accumulation assay was carried out. Samples were incubated at 4 °C for 60 min and centrifuged at 12,000× g for 10 min. Pellets were suspended in 100 μL 0.2% SDS and transferred to scintillation vials to measure radioactivity. A standard curve was made with known [^3H]IP3 concentrations (0.25-10 μM). Nonspecific binding was determined in the presence of 10 μM unlabeled IP3. Binding protein was obtained from bovine suprarenal capsules according to Palmer's protocol.

The next assay has as its system CREB gene expression. Kind of assay: CREB gene expression by real-time PCR. The note with it: 25 µM, 24 or 48 h. On the procedure: as §1, §2

Regarding GSNKGAIIGLM [Aβ25-35], the mGluR1 gene expression result in assay [1] is “increase”. In assay [2], the mGluR5 gene expression result is “did not present any significant variation”. In addition, in the assay on mGluR1, the “mGluR1 density at the membrane level, increase over control value” was “more than 7 fold”. In addition, the “decrease in DHPG-stimulated PLC activity” value in assay [3] (25 µM, 24 h, 30 µM DHPG for 10 min) is reported as 13%. Also, the “basal PLC activity” value in assay [3] (neurons exposed to 25 µM for 24 h, unstimulated, absence of DHPG) was 17.61 ± 4.85 pmol/mg/min and 17.6 ± 4.8 pmol/mg/min. Besides, the CREB gene expression entry with CREB gene expression was “decrease”.
